Experimental data taken from ChEMBL document CHEMBL1155696, “Enhanced cytotoxicity in a Z-photoisomer of a benzopyran derivative of propolis” (J Nat Prod, 2000).
Activity calls are given as the source filed them. No cut-off for these calls is given here.

What was measured:
HuH13 = test: Cytotoxicity against human HuH13 cells; type: functional, cell-based
[1] = Cytotoxicity against human HLC2 cells after 6 days by WST8 dye reduction assay; type: functional, cell-based; conditions: HLC2, 144 h
[2] = Cytotoxicity against human HLC2 cells after 3 days by WST8 dye reduction assay; type: functional, cell-based; conditions: HLC2, 72 h
[3] = Photochemical stability exposed to visible light in methanol assessed as conversion to (Z)-2,2-Dimethyl-8-(3-methyl-2-butenyl)-benzopyran-6-propenoic acid after 7 days; conditions: 168 h

SMILES | Activity (HuH13) | IC50 [1] [µM] | IC50 [2] [µM] | Activity [3] [%]
CC(C)=CCc1cc(/C=C\C(=O)O)cc2c1OC(C)(C)C=C2 | Active | 10 | 34 | –
CC(C)=CCc1cc(/C=C/C(=O)O)cc2c1OC(C)(C)C=C2 [CULIFOLIN] | Active | 100 | 230 | 71
